System: Hbb^th3/+ mice
Test: Erythrocyte membrane-associated α-globin detection and quantification (TAU gel electrophoresis, densitometry)
Assay type: in vivo, mouse
Settings: Hbb^th3/+ animals vs vehicle-treated; TAU gel electrophoresis (FIG. 1)
From the text: Fresh EDTA-blood samples of mice from each group were pooled (blood from 2 mice/pool), lysed, and membrane lipids were extracted, as previously described (Sorensen S, Rubin E, Polster H, Mohandas N, Schrier S. “The role of membrane skeletal-associated alpha-globin in the pathophysiology of beta-thalassemia.” Blood. 1990 Mar. 15; 75(6):1333-6). The insoluble membrane fraction was separated by electrophoresis on triton acetic acid urea (TAU) gels and visualized by Coomassie staining (Alter B et al, Br J Haematol 44:527, 1980). The signal intensity of the α-globin bands was quantified by densitometry using LAS-4000 Image Analyzer with Multi Gauge v.3 software (GE Healthcare Life Sciences).
Blood samples are washed three times with ice cold DPBS in the presence of 1 mM EDTA and lysed in an ice-cold hypotonic lysis buffer (5 mM sodium phosphate, pH 7.6 containing Complete Ultra protease inhibitors, Roche). The soluble Hb is collected to serve as standard on the gel. The erythrocyte ghosts are further washed three times by resuspending in hypotonic lysis buffer and centrifugation at 21'000×g. Membrane lipids are extracted in 50 mM sodium borate pH 8, 1 mM EDTA, 0.5% Triton X-100 (Sigma-Aldrich) and protease inhibitors. […]

Structure (SMILES): O=C(NCc1ncccc1F)c1coc(CCNCCc2nc3ccccc3[nH]2)n1 [Fpn127]
- levels of toxic α-globin/heme aggregates in RBC membrane skeleton preparations: significant dose-dependent decrease

Reference: patent publication US12533348B2, “Ferroportin-inhibitors for the use in the treatment of transfusion-dependent beta-thalassemia (TDT)” (Vifor (International) AG, priority 2019, dated 2026)
